We go through one molecule from patent US20180267043A1, “USE OF BIOMARKERS FOR PREDICTING CLINICAL SENSITIVITY TO CANCER TREATMENT” (CELGENE CORPORATION, priority 2014, published 2018).

The target in one data set is T1, FLAG-HA tagged CRBN (Homo sapiens, UniProt Q96SW2).
T1 construct: HA; expressed in transfected cells
Briefly: Anti-FLAG immunoprecipitation of FLAG-HA CRBN from 293 HEK lysate, mass spectrometry. It counts as binding. The conditions noted are these: 1 μM, whole cell lysate of 293 HEK cells, vs DMSO. Here is the method:
Whole cell lysate of 293 HEK cells stably expressing FLAG-HA tagged CRBN was treated with 1 μM Compound C or DMSO vehicle control. Proteins associated with FLAG-HA CRBN were immunoprecipitated with anti-FLAG affinity gel, separated on SDS-PAGE, silver-stained, and analyzed by mass spectrometry. […] Arrows point to the expected positions of DDB1, GSPT1, PABP1, and CRBN.

The test system of data set [1] is CRBN and its substrates IKZF1, GSPT1, GSPT2. Briefly: In vitro binding assay, anti-HA immunoprecipitation and immunoblotting. The conditions noted are these: cell lysates. The protocol:
CRBN−/− cells expressing HA-tagged substrates were lysed and incubated with anti-HA antibody to pull down substrates. CRBN positive cells expressing shGSPT1 that specifically knocks down GSPT1 were lysed, then mixed with the substrates obtained from CRBN−/− cells. The mixture was incubated with DMSO alone or compounds. Immunoprecipitation using anti-HA antibody was performed. Then, immunoblotting was performed using anti-CRBN or anti-HA antibodies.

Another data set deals with HEK 293FT cells. Briefly: CellTiter-Glo cell viability assay, HEK 293FT cells with GSPT1 overexpression. The data set is classed as cell-based, human. The protocol: The effect of overexpression of GSPT1 on Compound C-induced growth inhibition was tested in HEK 293FT cells. 293 cells stably expressing GSPT1 driven by three different promoters were generated. To these cells, Compound C was added at concentration of 0, 1 nM, 10 nM, 100 nM, or 1000 nM. Cell proliferation was measured by CellTiter-Glo cell viability assay (RLU-Relative Luminescent Unit) at day 2. […] The expression level of GSPT1 was measured at 10 hours after compound treatment in the right part of FIG. 7. […] Thus, overexpression of GSPT1 confers Compound C resistance to HEK 293FT cells.

Another data set concerns the target T2, GSPT1 (Homo sapiens, UniProt P15170).
T2 construct: endogenous in cells; host or cells: HEK 293FT cells (CRBN+/+)
The experiment in a line: GSPT1 expression level in HEK 293FT cells after compound treatment. It counts as cell-based. The conditions noted are these: CRBN+/+ cells, 10 hours, 100 nM or 1000 nM, compared to CRBN−/− cells.

The test system of the next data set is RPMI-8226. The experiment in a line: CellTiter-Glo cell viability assay after GSPT1 knockdown, RPMI-8226. The data set is classed as cell-based, human. Conditions: RPMI-8226 expressing shGSPT1-1 or shGSPT1-3 vs parental or control shRNA, 0.01 nM to 0.1 μM, day 9. The protocol: The effect of depletion of GSPT1 on the anti-proliferative effect of Compound C was determined in human multiple myeloma (MM) cell lines DF15 and RPMI-8226. Treatment compounds were titrated from 0.01 nM to 0.1 μM. Cell proliferation was measured by the CellTiter-Glo cell viability assay (RLU-Relative Luminescent Unit) at day 9 after GSPT1 knockdown by shGSPT1-1 or shGSPT1-3.

The subject of another data set is Molm13. The experiment in a line: CellTiter-Glo cell viability assay, Molm13. The conditions noted are these: 48 hours. It counts as cell-based, human. Here is the method: The effect of overexpression of GSPT1 on the anti-proliferative effect of Compound C was determined in human histiocytic lymphoma cell line U937 and human leukemia cell line Molm13. Treatment compounds were titrated from 0.1 nM to 1 μM. Cell proliferation was measured by CellTiter-Glo cell viability assay at 48 hours after treatment.

Data set [2] deals with XBP1 and ATF6 pathways. Briefly: RNA level of XBP1 and ATF6 pathway components in 293FT HEK cells. The data set is classed as cell-based, human. Conditions: 1 nM or 10 nM, 24 hours. The protocol:
The mechanism of Compound C-activated XBP1 and ATF6 pathways was studied in 293FT HEK cells. Parental cells, CRBN−/− cells, cells expressing control shRNA, or cells expressing GSPT1-specific shRNA were treated with DMSO, 1 nM, or 10 nM Compound C. The RNA level of variant cellular components along the XBP1 and ATF6 pathways was measured and normalized with GAPDH at 24 hours after treatment.

The subject of data set [3] is PERK/EIF2a/ATF4 pathway. Briefly: mRNA expression of PERK/EIF2a/ATF4 pathway components in DF15 MM cells. The data set is classed as cell-based, human. The conditions noted are these: 20 nM. The protocol: Cells were treated with DMSO alone or 20 nM Compound C. After 5 or 10 hours, the expression level of various cellular components along UPR or apoptosis pathways was measured. […] Loss of BIP immunoreactivity indicates an induction of UPR.

For data set [4], the system named is XBP1 and ATF6 pathways. The experiment in a line: RNA level of XBP1 and ATF6 pathway components in DF15 MM cells. It counts as cell-based, human. The conditions noted are these: DF15, 20 nM, 5, 10, or 23 hours. The protocol:
The mechanism of Compound C-activated XBP1 and ATF6 pathways was studied in DF15 MM cells. Cells were treated with DMSO or 20 nM Compound C for 5, 10, or 23 hours. The RNA level of variant cellular components along the XBP1 and ATF6 pathways was measured and normalized with GAPDH.

Data set [5] concerns PERK/EIF2a/ATF4 pathway. Briefly: mRNA level of PERK/EIF2a/ATF4 pathway components in KG1 cells. The data set is classed as cell-based, human. Conditions: KG1 cells (FIG. 18C).
For data set [6], the system named is XBP1 and ATF6 pathways. The experiment in a line: RNA level of XBP1 and ATF6 pathway components in KG1 cells. The data set is classed as cell-based, human. Conditions: KG1, 20 nM, 2, 4, or 6 hours. Here is the method: The mechanism of Compound C-activated XBP1 and ATF6 pathways of UPR was studied in KG1 cells. Cells were treated with DMSO or 20 nM Compound C for 2, 4, or 6 hours. The RNA level of variant cellular components along the XBP1 and ATF6 pathways was measured and normalized with GAPDH.

The test system of data set [7] is normal peripheral blood mononuclear cell (PBMC). The experiment in a line: Response of normal PBMC: GSPT1, ATF3, DDIT3 and apoptosis indicators. Conditions: 20 hours. The data set is classed as cell-based. Here is the method:
The response of PBMC to Compound C treatment was monitored by measuring the expression of GSPT1, ATF3, DDIT3, and downstream apoptosis indicators in PBMC. PBMCs were treated with 1 nM, 10 nM, 100 nM, or 1000 nM of Compound C for 20 hours. […] Thus, GSPT1, ATF3, DDIT3, cleaved Caspase-3, and cleaved PARP can serve as biomarkers predicting the toxicity of Compound C.

Setting [8] is: 293FT parental and control shRNA cells.
The mark [9] stands for this setting: PBMC, 1 nM, 10 nM, 100 nM, or 1000 nM.

T2 sequence (P15170 whole entry): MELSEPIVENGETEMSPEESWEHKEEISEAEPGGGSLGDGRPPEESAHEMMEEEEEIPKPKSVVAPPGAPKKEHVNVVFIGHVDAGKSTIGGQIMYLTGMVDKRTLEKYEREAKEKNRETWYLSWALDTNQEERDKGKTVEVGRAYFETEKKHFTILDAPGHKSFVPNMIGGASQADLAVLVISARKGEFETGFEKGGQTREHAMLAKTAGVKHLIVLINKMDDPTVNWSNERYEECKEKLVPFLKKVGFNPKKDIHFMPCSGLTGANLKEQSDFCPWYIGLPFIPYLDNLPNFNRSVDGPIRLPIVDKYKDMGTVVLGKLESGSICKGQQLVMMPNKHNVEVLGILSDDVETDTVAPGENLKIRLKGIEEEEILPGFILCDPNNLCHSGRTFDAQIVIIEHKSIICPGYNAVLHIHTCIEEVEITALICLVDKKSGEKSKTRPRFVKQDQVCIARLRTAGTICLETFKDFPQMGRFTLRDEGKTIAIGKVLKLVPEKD
T2 sequence (Q96SW2 whole entry, further chain): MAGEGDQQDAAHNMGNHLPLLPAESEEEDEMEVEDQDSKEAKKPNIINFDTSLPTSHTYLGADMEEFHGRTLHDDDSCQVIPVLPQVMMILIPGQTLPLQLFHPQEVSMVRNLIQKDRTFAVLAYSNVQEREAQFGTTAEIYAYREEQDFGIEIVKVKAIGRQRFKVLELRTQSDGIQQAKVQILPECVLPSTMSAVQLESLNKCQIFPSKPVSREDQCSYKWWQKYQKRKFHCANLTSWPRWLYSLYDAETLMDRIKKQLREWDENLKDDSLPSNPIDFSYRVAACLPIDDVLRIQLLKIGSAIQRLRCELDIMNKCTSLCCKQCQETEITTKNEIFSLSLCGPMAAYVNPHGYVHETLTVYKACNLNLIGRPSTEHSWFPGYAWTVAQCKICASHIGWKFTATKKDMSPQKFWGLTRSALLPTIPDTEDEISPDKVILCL
T2 sequence (Q16531 whole entry partner): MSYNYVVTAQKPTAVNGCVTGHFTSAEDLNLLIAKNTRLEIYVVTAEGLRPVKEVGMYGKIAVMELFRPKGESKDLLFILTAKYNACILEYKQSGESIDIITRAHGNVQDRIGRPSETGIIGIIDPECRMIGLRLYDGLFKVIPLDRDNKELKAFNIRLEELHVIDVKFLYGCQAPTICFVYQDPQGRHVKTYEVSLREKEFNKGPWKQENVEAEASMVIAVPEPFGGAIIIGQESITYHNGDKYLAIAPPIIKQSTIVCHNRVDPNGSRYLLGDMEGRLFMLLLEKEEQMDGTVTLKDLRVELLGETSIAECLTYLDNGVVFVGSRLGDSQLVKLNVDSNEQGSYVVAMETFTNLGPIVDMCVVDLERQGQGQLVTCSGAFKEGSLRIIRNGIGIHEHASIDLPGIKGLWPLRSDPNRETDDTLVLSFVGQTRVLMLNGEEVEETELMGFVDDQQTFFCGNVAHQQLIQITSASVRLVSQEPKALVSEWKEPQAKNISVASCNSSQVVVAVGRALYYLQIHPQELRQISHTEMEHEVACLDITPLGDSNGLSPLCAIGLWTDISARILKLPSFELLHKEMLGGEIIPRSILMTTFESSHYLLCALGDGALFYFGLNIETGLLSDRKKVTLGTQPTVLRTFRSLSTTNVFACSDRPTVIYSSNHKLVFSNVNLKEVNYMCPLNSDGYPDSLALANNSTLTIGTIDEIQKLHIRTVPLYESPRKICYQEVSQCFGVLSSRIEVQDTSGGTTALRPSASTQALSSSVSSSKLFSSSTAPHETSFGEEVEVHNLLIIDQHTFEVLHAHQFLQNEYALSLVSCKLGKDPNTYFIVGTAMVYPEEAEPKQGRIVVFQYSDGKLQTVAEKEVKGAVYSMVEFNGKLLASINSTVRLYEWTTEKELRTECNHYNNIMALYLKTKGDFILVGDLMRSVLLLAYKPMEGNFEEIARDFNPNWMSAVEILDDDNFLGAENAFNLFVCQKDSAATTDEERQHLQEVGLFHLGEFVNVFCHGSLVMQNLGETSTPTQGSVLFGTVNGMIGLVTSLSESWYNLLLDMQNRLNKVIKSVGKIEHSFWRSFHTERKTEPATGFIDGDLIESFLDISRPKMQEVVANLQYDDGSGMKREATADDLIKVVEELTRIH
T1 sequence (Q96SW2 whole entry): as the sequence (Q96SW2 whole entry, further chain) above

As to `Cc1ccc(NC(=O)NCc2ccc3c(c2)CN(C2CCC(=O)NC2=O)C3=O)cc1Cl` (stereo not drawn) [Compound C, 1-(3-chloro-4-methylphenyl)-3-((2-(2,6-dioxopiperidin-3-yl)-1-oxoisoindolin-5-yl)methyl)urea], on FLAG-HA tagged CRBN, the “Proteins associated with FLAG-HA CRBN identified as CAPs” value was “PABP1, GSPT1/eRF3a, GSPT2/eRF3b, and HBS1L/eRF3c were identified as CAPs only when CRBN was bound with Compound C”. Further, in [1], the “Interaction between CRBN and GSPT1 or GSPT2” value was “promotes the interaction”; the “Interaction between CRBN and IKZF1” value is “promotes the interaction”. The “Cell proliferation (growth inhibition)” value in the data set with HEK 293FT cells (GSPT1 overexpression driven by different promoters, 0-1000 nM, day 2) was “confers various degrees of resistance to Compound C-induced growth inhibition”. Moreover, in the data set on HEK 293FT cells (cells expressing CMV-GSPT1), the “Cell proliferation (compound resistance)” value is recorded as “exhibit the highest level of Compound C resistance”. The Cell proliferation result in the data set with HEK 293FT cells (parental cells, 0-1000 nM, day 2) was “inhibits cell proliferation in parental cells”. Also, the GSPT1 expression level entry on GSPT1 is on record as “GSPT1 is degraded in CRBN+/+ cells”. For the same molecule, in the data set on RPMI-8226, the Anti-proliferative effect result is reported as “increased anti-proliferative effect”. The Anti-proliferative effect result in the data set on Molm13 (Molm13, exogenous GSPT1 overproduced via EF1a promoter) is given as “the anti-proliferative effect of Compound C reduces”. The Anti-proliferative effect entry in the data set with Molm13 (Molm13 CRBN −/− cells) was “completely abolished”. Further, the Cell proliferation entry in the data set with Molm13 (Molm13 parental cells, 0.1 nM to 1 μM) was “inhibits cell proliferation”. Moreover, in the data set on XBP1 and ATF6 pathways [2] (setting [8]), the “RNA level of ATF6 pathway components (XBP1, EDEM1, EDEM2, HYOU1, HSPA5)” value was “induces expression” and the “RNA level of XBP1 pathway components (SEC24D, DNAJB9, DNAJC6, XBP1, EDEM1, EDEM2, HYOU1)” value is “induces expression”. Also, the “RNA level of XBP1 and ATF6 pathway components” value in the data set on XBP1 and ATF6 pathways [2] (cells with GSPT1 knockdown) was “This induction effect increases”. For the same molecule, the “Expression of ATF4, ATF3, DDIT3, PPP1R15A, and GADD45A (FIG. 16C)” value with PERK/EIF2a/ATF4 pathway [3] is “Compound C-induced expression of ATF4, ATF3, DDIT3, PPP1R15A, and GADD45A”. Besides, in the data set with XBP1 and ATF6 pathways [4], the “RNA level of ATF6 pathway components (XBP1, EDEM1, HYOU1, HSPA5)” value is “induces expression” and the “RNA level of XBP1 pathway components (SEC24D, DNAJB9, XBP1, EDEM1, HYOU1)” value was “induces expression”. For the same molecule, the “mRNA level of ATF4, ATF3, DDIT3, PPP1R15A, GADD45A, TNFRSF1B, and TNFRSF10B” value with PERK/EIF2a/ATF4 pathway [5] is “Compound C-induced expression of ATF4, ATF3, DDIT3, PPP1R15A, GADD45A, TNFRSF1B, and TNFRSF10B”. In the data set with XBP1 and ATF6 pathways [6], the “RNA level of ATF6 pathway components (XBP1)” value is given as “induces expression” and the “RNA level of XBP1 pathway components (SEC24D, DNAJB9, EDEM1, XBP1)” value was “induces expression”. For the same molecule, in [7] (setting [9]), the “Cleaved Caspase-3” value is listed as “increasing cleaved Caspase-3”; the “Expression of GSPT1” value is recorded as “decreases the expression of GSPT1”; the “Level of p-EIF2α, ATF3 and DDIT3” value is listed as “increases the level”. Besides, in data set [7] (normal PBMC), the Apoptosis entry is “induces apoptosis”.
